Assay results from the supplement of paper PMC10307832.

Columns and labels:
Assay in all cases: relative viability (nuclei count vs DMSO), 5 days (fraction); higher = more cells survive
Axitinib + Alpelisib = compound: CNC(=O)c1ccccc1Sc1ccc2c(/C=C/c3ccccn3)n[nH]c2c1 [Axitinib] + Cc1nc(NC(=O)N2CCC[C@H]2C(N)=O)sc1-c1ccnc(C(C)(C)C(F)(F)F)c1 [Alpelisib] (partner 2 µM)
In short: (§1)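 Five library-drug doses in √10 steps were combined with a fixed anchor-drug dose, or a single drug was given alone, by pin tool to lung cancer cell lines in 1536-well plates the day after seeding. Nuclei were stained and counted after 5 days. Relative viability is the nuclei count in treated wells over that in vehicle wells, taken as the median of duplicate plates.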

Axitinib + Vorinostat = compound: CNC(=O)c1ccccc1Sc1ccc2c(/C=C/c3ccccn3)n[nH]c2c1 [Axitinib] + O=C(CCCCCCC(=O)Nc1ccccc1)NO [Vorinostat] (partner 1 µM)
In short: as §1

Bemcentinib + Tozasertib = compound: Nc1nc(Nc2ccc3c(c2)CC[C@@H](N2CCCC2)CC3)nn1-c1cc2c(nn1)-c1ccccc1CCC2 [Bemcentinib] + Cc1cc(Nc2cc(N3CCN(C)CC3)nc(Sc3ccc(NC(=O)C4CC4)cc3)n2)n[nH]1 [Tozasertib] (partner 0.1 µM)
In short: as §1

Bemcentinib + Dasatinib = compound: Nc1nc(Nc2ccc3c(c2)CC[C@@H](N2CCCC2)CC3)nn1-c1cc2c(nn1)-c1ccccc1CCC2 [Bemcentinib] + Cc1nc(Nc2ncc(C(=O)Nc3c(C)cccc3Cl)s2)cc(N2CCN(CCO)CC2)n1 [Dasatinib] (partner 0.075 µM)
In short: as §1

Cell Line	relative viability (Axitinib + Alpelisib; first compound 0.005 µM)	relative viability (Axitinib + Alpelisib; first compound 0.01581 µM)	relative viability (Axitinib + Alpelisib; first compound 0.05 µM)	relative viability (Axitinib + Alpelisib; first compound 0.1581 µM)	relative viability (Axitinib + Alpelisib; first compound 0.5 µM)	relative viability (Axitinib + Vorinostat; first compound 0.005 µM)	relative viability (Axitinib + Vorinostat; first compound 0.01581 µM)	relative viability (Axitinib + Vorinostat; first compound 0.05 µM)	relative viability (Axitinib + Vorinostat; first compound 0.1581 µM)	relative viability (Axitinib + Vorinostat; first compound 0.5 µM)	relative viability (Bemcentinib + Tozasertib; first compound 0.04 µM)	relative viability (Bemcentinib + Tozasertib; first compound 0.1265 µM)	relative viability (Bemcentinib + Tozasertib; first compound 0.4 µM)	relative viability (Bemcentinib + Tozasertib; first compound 1.265 µM)	relative viability (Bemcentinib + Tozasertib; first compound 4 µM)	relative viability (Bemcentinib + Dasatinib; first compound 0.04 µM)	relative viability (Bemcentinib + Dasatinib; first compound 0.1265 µM)	relative viability (Bemcentinib + Dasatinib; first compound 0.4 µM)	relative viability (Bemcentinib + Dasatinib; first compound 1.265 µM)	relative viability (Bemcentinib + Dasatinib; first compound 4 µM)
NCI-H358	1.03	0.898	0.806	0.738	1.05	0.698	0.675	0.689	0.573	0.726	0.11	0.129	0.106	0.0963	0.119	0.153	0.146	0.148	0.163	0.171
A-427	1.05	1.1	1.08	1.05	1.09	0.909	0.929	0.864	0.903	0.956	0.192	0.192	0.197	0.213	0.201	0.719	0.737	0.68	0.707	0.691
NCI-H2126	0.724	0.795	0.745	0.707	0.697	0.828	0.819	0.801	0.8	0.724	0.896	0.822	0.788	0.856	0.837	0.559	0.67	0.646	0.71	0.699
NCI-H647	1.27	1.24	1.28	1.11	1.6	0.63	0.71	0.572	0.548	0.605	0.304	0.286	0.28	0.317	0.246	0.169	0.213	0.211	0.186	0.136
UMC-11	1.08	0.871	0.959	1.03	1.16	0.323	0.339	0.401	0.408	0.36	0.214	0.192	0.2	0.198	0.204	0.462	0.563	0.559	0.466	0.476
LOU-NH91	0.772	0.512	0.715	0.702	0.778	0.966	0.765	1.01	0.875	0.939	0.651	0.639	0.635	0.709	0.63	0.508	0.568	0.59	0.335	0.61
HCC-15	0.933	0.899	0.838	0.847	0.866	0.992	0.91	0.837	0.743	0.823	0.381	0.488	0.401	0.365	0.392	0.628	0.696	0.708	0.669	0.732
NCI-H1975	0.777	0.73	0.766	0.667	0.74	0.704	0.729	0.715	0.644	0.733	0.689	0.881	1.02	0.672	0.818	0.344	0.424	0.432	0.386	0.354
